Source: patent publication US11547301B2, “Methods for collecting and testing bacteria containing samples from within the gastrointestinal tract” (priority 2016, dated 2023)

Legend:
[1] = system: Propionibacterium acnes and Staphylococcus epidermidis; conditions: aerobic and anaerobic organisms; cited from earlier work
[2] = system: dermatophytes, yeasts, moulds and other fungi; conditions: cited from earlier work
[3] = system: Gram-positive and Gram-negative bacteria; conditions: e.g., Escherichia coli, Proteus mirabilis, Pseudomonas aeruginosa, Staphylococcus and Streptococcus species; cited from earlier work
C. albicans = experiment: Fungal contamination of incubated OD assay, with or without anti-fungal recovery media; type: cell-based; conditions: TSB containing 2.5 mg/L Amphotericin B
[4] = system: Escherichia coli ATCC 25922; experiment: OD (600 nm) of incubated bacterial samples under simulated GI conditions (bile, mucin, pH, yeast), 4 hour incubation; type: cell-based; conditions: Yeast+Amphotericin B
Method: (§1) Experiments were performed in order to simulate an ingestible device that contains sterile media that is inoculated with a sample of fluid from the GI tract and incubated in transit. […] The samples were also incubated under conditions of shear forces and temperature that simulate conditions of an ingestible device in transit within the GI tract.
(§2) The assay utilized 50 μL, sample volumes, under shear (110 rpm) and at body temperature (37° C.) over a 4 hour incubation period to simulate transit of an ingestible device within the GI tract. […] Experiments were conducted in quintuplicate.

[5] = system: Staphylococcus epidermidis ATCC 12228; experiment: as above; type: cell-based; conditions: Yeast Amphotericin B
Method: as §1, §2

[6] = numerous murine models; cited from earlier work
human IL-6 = human IL-6 (Homo sapiens, UniProt P05231); conditions: cited from earlier work
Sequence of human IL-6 (P05231 30-212): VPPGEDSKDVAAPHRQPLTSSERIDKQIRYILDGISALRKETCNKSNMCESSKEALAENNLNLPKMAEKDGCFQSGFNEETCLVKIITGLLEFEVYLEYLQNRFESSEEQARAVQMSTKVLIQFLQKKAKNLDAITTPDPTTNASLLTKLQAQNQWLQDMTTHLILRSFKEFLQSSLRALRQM

## O=C(O)CCCCCCCC(=O)O [Azelaic acid]
[1]
  antibacterial effects: antibacterial effects

## Cc1cc(C2CCCCC2)n(O)c(=O)c1 [Ciclopirox]
[2]
  antifungal activity: fungicidal, fungistatic and sporicidal activity
[3]
  activity against bacteria: effective

## C[C@@H]1[C@H](O)[C@@H](C)/C=C/C=C/C=C/C=C/C=C/C=C/C=C/[C@H](O[C@@H]2O[C@H](C)[C@@H](O)[C@H](N)[C@@H]2O)C[C@@H]2O[C@](O)(C[C@@H](O)C[C@@H](O)[C@H](O)CC[C@@H](O)C[C@@H](O)CC(=O)O[C@H]1C)C[C@H](O)[C@H]2C(=O)O [amphotericin B, Amphotericin B]
C. albicans
  Effect on background fungal growth (plate counts and optical density): reduced the background fungal growth
[4]; EC 10^3 initial concentration
  OD (600 nm) Mean: 0.0410
[4]; EC 10^4 initial concentration
  OD (600 nm) Mean: 0.0432
[4]; EC 10^5 initial concentration
  OD (600 nm) Mean: 0.0562
[4]; EC 10^6 initial concentration
  OD (600 nm) Mean: 0.1038
[4]; EC 10^7 initial concentration
  OD (600 nm) Mean: 0.1274
[5]; SE 10^3 initial concentration
  OD (600 nm) Mean: 0.0425
[5]; SE 10^4 initial concentration
  OD (600 nm) Mean: 0.0437
[5]; SE 10^5 initial concentration
  OD (600 nm) Mean: 0.0454
[5]; SE 10^6 initial concentration
  OD (600 nm) Mean: 0.0611
[5]; SE 10^7 initial concentration
  OD (600 nm) Mean: 0.0971

## L-glutamic acid polymer with L-alanine, L-lysine and L-tyrosine, acetate (salt) [Glatiramer acetate]
[6]
  inflammation and pathological manifestations of IBD: reduce inflammation and ameliorate the pathological manifestations

## siltuximab: chimeric, human-murine, immunoglobulin (Ig) Gκ mAb that binds and neutralizes human IL-6
Human IL-6
  binding and neutralization of human IL-6: high affinity and specificity
